Test [1] addresses Tyrosine-protein kinase JAK2 (Homo sapiens) (UniProt O60674). As to the kind of experiment: Inhibition of JAK2 JH1catalytic domain (unknown origin) at 1 uM by Ambit Kinomescan binding assay relative to control.
Test [2] concerns the target Wee1-like protein kinase 2 (Homo sapiens) (UniProt P0C1S8). As to the kind of experiment: Inhibition of WEE2 (unknown origin) at 1 uM by Ambit Kinomescan binding assay relative to control.
In test [3] the target is DNA-PK/Ku70/Ku85 (Homo sapiens) (UniProt P78527+P12956+P13010). As to the kind of experiment: Inhibition of DNAPK ATP labeling site harbouring GHDEREHPFLVKGGEDLRQDQR in human A-375 cells at 0.05 uM by KiNativ Profiling analysis relative to control. The format is cell-based.
Test [4] deals with Calcium/calmodulin-dependent protein kinase kinase 2 (Homo sapiens) (UniProt Q96RR4). The experiment in a line: Inhibition of CAMKK2 (unknown origin) at 1 uM by Ambit Kinomescan binding assay relative to control; values are per cent of control.
Test [5] deals with Tyrosine-protein kinase JAK1 (Homo sapiens) (UniProt P23458). The experiment in a line: Inhibition of JAK1 JH1catalytic domain (unknown origin) at 1 uM by Ambit Kinomescan binding assay relative to control.
Tyrosine-protein kinase JAK1 (Homo sapiens), sequence (P23458 whole entry, the tested form may be a part): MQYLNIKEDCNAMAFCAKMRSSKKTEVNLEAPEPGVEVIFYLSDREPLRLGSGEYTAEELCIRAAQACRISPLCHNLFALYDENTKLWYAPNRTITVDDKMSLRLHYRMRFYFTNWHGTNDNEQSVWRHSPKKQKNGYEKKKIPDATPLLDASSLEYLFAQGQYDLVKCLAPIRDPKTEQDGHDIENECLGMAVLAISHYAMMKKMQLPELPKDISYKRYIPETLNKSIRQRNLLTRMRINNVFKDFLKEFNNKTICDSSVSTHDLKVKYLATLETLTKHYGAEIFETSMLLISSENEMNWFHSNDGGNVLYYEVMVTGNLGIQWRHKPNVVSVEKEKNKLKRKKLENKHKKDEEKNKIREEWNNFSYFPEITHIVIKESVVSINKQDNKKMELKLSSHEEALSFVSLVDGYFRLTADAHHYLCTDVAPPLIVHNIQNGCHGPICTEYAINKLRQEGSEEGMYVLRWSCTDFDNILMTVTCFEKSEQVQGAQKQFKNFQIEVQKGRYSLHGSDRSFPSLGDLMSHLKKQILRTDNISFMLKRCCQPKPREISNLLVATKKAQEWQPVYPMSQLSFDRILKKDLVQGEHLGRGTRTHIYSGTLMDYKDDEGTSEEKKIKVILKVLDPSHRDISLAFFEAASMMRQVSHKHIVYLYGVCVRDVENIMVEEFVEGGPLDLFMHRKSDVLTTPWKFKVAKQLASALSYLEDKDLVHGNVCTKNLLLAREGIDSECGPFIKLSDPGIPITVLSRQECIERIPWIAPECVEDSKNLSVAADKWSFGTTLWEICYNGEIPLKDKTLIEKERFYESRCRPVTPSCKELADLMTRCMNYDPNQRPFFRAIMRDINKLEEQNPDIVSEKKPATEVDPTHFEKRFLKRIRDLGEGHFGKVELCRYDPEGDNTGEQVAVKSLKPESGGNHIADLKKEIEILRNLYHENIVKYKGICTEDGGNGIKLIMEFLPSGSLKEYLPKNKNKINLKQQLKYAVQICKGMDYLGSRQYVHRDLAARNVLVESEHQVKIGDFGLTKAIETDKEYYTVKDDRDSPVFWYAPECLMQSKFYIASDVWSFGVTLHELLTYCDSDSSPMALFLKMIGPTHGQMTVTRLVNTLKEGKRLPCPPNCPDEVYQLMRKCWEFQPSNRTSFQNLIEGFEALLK
Test [6] addresses T1, Mitogen-activated protein kinase kinase kinase 5 (Homo sapiens) (UniProt Q99683).
T1 sequence (whole entry): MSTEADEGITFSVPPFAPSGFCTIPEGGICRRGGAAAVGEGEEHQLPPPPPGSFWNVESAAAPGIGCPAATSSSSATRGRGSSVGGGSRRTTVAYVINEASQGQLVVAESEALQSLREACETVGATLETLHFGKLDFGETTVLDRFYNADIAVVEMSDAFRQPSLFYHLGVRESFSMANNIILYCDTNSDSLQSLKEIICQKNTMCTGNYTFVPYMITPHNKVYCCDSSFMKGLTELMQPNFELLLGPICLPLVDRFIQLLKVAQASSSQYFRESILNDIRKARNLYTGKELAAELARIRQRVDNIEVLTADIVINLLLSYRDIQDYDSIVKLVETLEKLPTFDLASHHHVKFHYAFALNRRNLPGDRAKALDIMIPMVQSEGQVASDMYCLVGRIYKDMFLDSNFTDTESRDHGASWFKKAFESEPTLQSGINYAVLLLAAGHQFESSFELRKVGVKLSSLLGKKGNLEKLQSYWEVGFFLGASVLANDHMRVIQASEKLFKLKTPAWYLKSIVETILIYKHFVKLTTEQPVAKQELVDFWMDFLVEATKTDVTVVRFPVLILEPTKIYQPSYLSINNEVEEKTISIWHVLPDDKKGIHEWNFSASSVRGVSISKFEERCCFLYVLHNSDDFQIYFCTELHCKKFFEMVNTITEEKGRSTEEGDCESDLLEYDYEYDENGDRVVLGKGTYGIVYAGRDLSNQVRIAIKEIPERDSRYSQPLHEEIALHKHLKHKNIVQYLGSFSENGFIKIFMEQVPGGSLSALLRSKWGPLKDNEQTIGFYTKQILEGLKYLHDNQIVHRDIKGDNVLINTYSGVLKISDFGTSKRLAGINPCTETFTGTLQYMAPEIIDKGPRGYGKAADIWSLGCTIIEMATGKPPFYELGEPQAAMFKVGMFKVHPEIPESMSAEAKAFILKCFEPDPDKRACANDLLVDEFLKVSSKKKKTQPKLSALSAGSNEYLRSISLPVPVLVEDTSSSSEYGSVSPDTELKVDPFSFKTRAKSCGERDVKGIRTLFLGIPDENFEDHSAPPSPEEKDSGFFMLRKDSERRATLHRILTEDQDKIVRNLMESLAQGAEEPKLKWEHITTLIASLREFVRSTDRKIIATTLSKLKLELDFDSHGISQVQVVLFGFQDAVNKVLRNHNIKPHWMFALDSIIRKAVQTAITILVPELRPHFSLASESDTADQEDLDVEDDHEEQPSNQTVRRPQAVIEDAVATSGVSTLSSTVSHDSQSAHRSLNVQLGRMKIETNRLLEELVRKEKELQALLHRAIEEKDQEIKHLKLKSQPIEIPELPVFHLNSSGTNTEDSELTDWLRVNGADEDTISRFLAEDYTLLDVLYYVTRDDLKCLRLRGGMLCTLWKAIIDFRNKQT
The experiment in a line: Inhibition of ASK1 (unknown origin) at 1 uM by Ambit Kinomescan binding assay relative to control.

For test [7], the target named is Activin receptor type-2A (Homo sapiens) (UniProt P27037). As to the kind of experiment: Inhibition of ACVR2A (unknown origin) at 10 uM by Ambit Kinomescan binding assay.
The target in test [8] is Serine/threonine-protein kinase Nek2 (Homo sapiens) (UniProt P51955). The experiment in a line: Inhibition of NEK2 (unknown origin) at 10 uM by Ambit Kinomescan binding assay.
Test [9] addresses Tyrosine-protein kinase Fes/Fps (Homo sapiens, UniProt P07332). As to the kind of experiment: Inhibition of FES (unknown origin) at 10 uM by Ambit Kinomescan binding assay relative to control; values are per cent of control.
Test [10] concerns the target Citron Rho-interacting kinase (Homo sapiens) (UniProt O14578). As to the kind of experiment: Inhibition of CIT (unknown origin) at 10 uM by Ambit Kinomescan binding assay relative to control; values are per cent of control.
Test [11] deals with Mitogen-activated protein kinase kinase kinase kinase 4 (Homo sapiens, UniProt O95819). The experiment in a line: Inhibition of ZC1/HGK K1 labeling site harbouring TGQLAAIKVMDVTEDEEEEIKLEINMLKK in human Huh-7 cells at 1 uM by KiNativ Profiling analysis relative to control. The format is cell-based.
Mitogen-activated protein kinase kinase kinase kinase 4, sequence (O95819 2-1239 limits assumed): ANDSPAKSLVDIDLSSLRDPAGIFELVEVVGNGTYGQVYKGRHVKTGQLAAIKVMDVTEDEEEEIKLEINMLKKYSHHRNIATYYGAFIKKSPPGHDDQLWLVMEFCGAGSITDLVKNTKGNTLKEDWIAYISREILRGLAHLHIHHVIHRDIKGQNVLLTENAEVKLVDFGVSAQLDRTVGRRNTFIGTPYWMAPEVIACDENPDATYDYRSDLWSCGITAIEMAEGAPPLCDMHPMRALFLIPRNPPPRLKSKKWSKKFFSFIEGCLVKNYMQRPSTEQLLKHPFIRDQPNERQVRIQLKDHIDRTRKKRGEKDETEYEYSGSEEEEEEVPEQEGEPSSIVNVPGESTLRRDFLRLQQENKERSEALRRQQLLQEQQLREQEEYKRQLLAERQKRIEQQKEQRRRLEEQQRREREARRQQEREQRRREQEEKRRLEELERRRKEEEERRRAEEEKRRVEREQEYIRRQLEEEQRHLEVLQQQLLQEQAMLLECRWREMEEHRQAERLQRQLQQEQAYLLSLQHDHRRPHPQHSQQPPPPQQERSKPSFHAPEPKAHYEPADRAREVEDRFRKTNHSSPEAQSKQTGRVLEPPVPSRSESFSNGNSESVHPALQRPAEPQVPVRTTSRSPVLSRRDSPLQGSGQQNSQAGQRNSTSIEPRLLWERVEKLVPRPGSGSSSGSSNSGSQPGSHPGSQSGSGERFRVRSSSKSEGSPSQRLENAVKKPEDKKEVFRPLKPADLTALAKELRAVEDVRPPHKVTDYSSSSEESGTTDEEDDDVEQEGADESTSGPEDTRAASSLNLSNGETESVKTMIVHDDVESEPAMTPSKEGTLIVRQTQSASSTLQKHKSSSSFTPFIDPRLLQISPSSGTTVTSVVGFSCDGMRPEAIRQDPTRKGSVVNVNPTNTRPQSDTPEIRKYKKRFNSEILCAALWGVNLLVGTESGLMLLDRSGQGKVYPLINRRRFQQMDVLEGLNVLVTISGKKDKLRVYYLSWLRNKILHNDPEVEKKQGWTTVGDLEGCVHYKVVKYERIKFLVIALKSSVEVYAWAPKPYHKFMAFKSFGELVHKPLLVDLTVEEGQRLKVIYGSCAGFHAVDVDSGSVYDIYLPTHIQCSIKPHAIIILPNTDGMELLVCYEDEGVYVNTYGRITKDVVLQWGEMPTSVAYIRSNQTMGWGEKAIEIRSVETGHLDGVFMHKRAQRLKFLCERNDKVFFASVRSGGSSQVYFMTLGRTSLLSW
Test [12] deals with AMPK alpha1/alpha2 (Homo sapiens) (UniProt P54646+Q13131). The experiment in a line: Inhibition of AMPK alpha1/2 K2 labeling site in human Huh-7 cells at 10 uM by KiNativ Profiling analysis relative to control. The format is cell-based.
Test [13] addresses Cyclin-dependent kinase 6 (Homo sapiens) (UniProt Q00534). The experiment in a line: Inhibition of CDK6 Lys2 labeling site in human Huh-7 cells at 1 uM by KiNativ Profiling analysis relative to control. The format is cell-based.
The target in test [14] is Calcium/calmodulin-dependent protein kinase type II subunit gamma (Homo sapiens) (UniProt Q13555). The experiment in a line: Inhibition of CaMK2g Lys1 labeling site harbouring TSTQEYAAKIINTKK in human Huh-7 cell lysate at 1 uM by KiNativ Profiling analysis relative to control. The format is subcellular.
Calcium/calmodulin-dependent protein kinase type II subunit gamma (Homo sapiens), sequence (Q13555 whole entry): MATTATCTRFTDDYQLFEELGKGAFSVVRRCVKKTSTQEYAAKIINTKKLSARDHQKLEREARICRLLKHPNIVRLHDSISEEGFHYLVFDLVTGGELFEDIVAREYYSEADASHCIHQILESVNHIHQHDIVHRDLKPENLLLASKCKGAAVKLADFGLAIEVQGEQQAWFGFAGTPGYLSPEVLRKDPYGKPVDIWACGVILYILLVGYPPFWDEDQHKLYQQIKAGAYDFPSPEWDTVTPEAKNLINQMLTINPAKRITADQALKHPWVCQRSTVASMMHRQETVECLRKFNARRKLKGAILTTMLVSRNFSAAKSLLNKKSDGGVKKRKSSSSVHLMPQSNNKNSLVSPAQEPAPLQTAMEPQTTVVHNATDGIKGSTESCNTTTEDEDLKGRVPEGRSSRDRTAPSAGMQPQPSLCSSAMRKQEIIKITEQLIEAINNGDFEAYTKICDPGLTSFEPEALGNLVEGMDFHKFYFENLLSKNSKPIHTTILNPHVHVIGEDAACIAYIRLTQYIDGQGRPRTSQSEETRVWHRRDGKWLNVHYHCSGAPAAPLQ

The source made the active and inactive calls. The rule behind the calls is not given here.

Tyrosine-protein kinase JAK2 (Homo sapiens), sequence (O60674 whole entry, the tested form may be a part): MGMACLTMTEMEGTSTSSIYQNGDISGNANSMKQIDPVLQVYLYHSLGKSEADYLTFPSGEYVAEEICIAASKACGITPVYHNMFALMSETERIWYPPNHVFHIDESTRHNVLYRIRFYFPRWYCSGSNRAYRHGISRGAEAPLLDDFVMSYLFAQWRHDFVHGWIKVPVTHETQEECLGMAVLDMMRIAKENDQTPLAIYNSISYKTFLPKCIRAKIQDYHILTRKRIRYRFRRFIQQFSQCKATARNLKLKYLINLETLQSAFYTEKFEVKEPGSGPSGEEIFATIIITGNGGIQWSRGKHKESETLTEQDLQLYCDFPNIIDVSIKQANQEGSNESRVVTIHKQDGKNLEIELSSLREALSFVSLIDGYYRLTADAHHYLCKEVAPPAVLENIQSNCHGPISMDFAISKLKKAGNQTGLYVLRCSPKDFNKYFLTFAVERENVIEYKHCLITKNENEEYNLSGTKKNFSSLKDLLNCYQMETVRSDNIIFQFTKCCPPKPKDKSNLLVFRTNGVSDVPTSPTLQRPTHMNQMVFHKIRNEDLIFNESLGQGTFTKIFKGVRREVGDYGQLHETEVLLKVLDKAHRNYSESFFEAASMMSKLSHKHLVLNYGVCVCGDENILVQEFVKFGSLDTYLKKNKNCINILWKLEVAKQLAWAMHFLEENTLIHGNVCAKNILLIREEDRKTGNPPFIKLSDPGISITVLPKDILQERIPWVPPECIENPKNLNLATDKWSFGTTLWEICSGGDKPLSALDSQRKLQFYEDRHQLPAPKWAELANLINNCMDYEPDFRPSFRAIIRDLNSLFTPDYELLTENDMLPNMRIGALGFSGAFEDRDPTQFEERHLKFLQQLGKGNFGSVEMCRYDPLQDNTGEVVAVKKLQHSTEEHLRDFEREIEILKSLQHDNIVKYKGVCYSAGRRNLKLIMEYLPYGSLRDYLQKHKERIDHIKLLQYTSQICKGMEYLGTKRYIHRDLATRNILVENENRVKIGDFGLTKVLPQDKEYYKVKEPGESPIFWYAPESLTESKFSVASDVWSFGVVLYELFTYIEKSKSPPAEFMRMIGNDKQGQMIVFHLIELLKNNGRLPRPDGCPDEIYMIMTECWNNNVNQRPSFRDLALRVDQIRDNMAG
Wee1-like protein kinase 2 (Homo sapiens), sequence (P0C1S8 whole entry, looked up): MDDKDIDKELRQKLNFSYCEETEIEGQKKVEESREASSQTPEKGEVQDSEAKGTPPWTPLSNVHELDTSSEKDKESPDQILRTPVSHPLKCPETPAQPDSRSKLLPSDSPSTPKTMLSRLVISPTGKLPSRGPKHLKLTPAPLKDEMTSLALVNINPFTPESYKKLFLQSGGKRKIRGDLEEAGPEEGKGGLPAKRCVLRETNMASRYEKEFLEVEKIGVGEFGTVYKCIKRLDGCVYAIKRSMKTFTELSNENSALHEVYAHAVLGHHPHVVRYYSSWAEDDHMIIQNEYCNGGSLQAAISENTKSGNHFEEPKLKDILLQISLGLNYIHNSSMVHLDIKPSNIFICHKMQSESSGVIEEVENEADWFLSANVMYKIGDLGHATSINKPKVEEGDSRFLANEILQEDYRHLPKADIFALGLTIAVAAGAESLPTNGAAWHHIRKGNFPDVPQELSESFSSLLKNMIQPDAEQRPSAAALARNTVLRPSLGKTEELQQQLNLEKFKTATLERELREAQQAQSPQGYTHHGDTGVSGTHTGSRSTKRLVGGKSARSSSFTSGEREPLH
Cyclin-dependent kinase 6 (Homo sapiens), sequence (Q00534 whole entry): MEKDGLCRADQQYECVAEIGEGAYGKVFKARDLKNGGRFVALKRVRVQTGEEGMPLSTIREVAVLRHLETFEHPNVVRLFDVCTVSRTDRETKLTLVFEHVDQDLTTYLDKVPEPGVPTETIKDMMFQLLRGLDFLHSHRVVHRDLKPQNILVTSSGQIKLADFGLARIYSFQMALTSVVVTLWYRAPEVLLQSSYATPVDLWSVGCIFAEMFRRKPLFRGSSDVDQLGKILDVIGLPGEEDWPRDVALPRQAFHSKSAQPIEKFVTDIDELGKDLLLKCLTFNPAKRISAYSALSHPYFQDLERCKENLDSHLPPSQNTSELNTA

The term inhibition denotes the relative decrease from the control value, in per cent. In general, residual activity refers to the share of the control activity or signal that is left under treatment. Regarding `CCN1CCN(Cc2ccc(NC(=O)c3ccc(C)c(/C=C/c4cnc5[nH]ccc5c4OC)c3)cc2C(F)(F)F)CC1`, the inhibition in test [1] is 32%; in test [2] it was 74%; in test [3] it was -9.6%; in [5], 76%; in [6] it was 100%. Also, the residual activity in [4] was found to be 100%.
For the molecule `CCN1CCN(Cc2ccc(NC(=O)c3ccc(C)c(Oc4ccnc5[nH]ccc45)c3)cc2C(F)(F)F)CC1`, the inhibition entry in test [7] and in [8] was “inactive” in each case. Further, the figures for the percent of control in test [9] and in test [10] were 2.2% and 0.1%, respectively. Further, the inhibition in [11] came out at 19.2%; in [12], 6.2%.
On to `CNc1cc(Oc2cc(C(=O)Nc3cc(N4CCN(C)CC4)cc(C(F)(F)F)c3)ccc2C)ncn1`, for which the inhibition in test [13] was 24.4%; in test [14], 8.6%.
